Reference: US20240173425A1, “HUMAN CD33 ANTIBODIES AND GLUCOCORTICOID CONJUGATES” (Eli Lilly and Company, priority 2022, published 2024)
Where two headings read alike, the source gives them in different places. Marks after values point to notes of the source that are not given here.

What was measured:
[1] = system: human plasmacytoid dendritic cells (pDCs); test: Plasmacytoid dendritic cell differentiation assay; type: cell-based; conditions: human PBMCs, IL-3 supplemented media, CpG stimulation
Protocol: The differentiation of pDC was measured by flow cytometry. The functional effects of the pDC were measured by type I IFN (IFNα) production.

[2] = system: human PBMCs; test: Proinflammatory cytokine modulation in LPS-stimulated PBMCs; type: cell-based; conditions: PBMC, 200 nM, LPS 100 pg/mL, 24 hours
Protocol: PBMCs were used to mimic in vivo conditions. […] The cells were then stimulated with LPS (Sigma cat. L2880) at 100 pg/mL in a 37° C. incubator for 24 hours. Culture supernatants were collected to measure the indicated cytokines (Proinflammatory Panel II (human) 4-Plex kits, MSD, K15053D-2).

[3] = system: oxazolone-induced skin inflammation; test: Oxazolone-induced contact hypersensitivity in humanized mouse model (HuNOG-EXL); type: in vivo; conditions: Challenge 3, 3 mg/kg SC 1 hour prior to sensitization and each challenge
Protocol: (§1) Briefly, huNOG-EXL mice were engrafted at 6 weeks of age with human CD34+ hematopoietic stem cells isolated from human cord blood. 20-24 weeks after stem cell administration the mice were assessed for human CD45 engraftment (>25% in blood) and subjected to an oxazolone-induced contact hypersensitivity protocol. […] 24 hours (Day 1) post administration, the mice were anesthetized with 5% isoflurane, their abdomens shaved, and sensitized with 100 μL of 3% oxazolone in ethanol (applied to the shaved area). Mice were dosed again on Day 4, 11, and 16 as above, and challenged with 2% oxazolone in ethanol on both ears (10 μL/side/ear) 48 hours post each dose (Day 6—Challenge 1, Day 13—Challenge 2, and Day 18—Challenge 3). For the GC1 alone group, mice were dosed with 3 mg/kg SC 1 hour prior to sensitization and prior to each challenge. Upon final challenge, mice were euthanized, and ear tissue and the gastrocnemius was collected for analysis of target selective and non-target selective tissue expression of GC regulated genes.

[4] = system: FKBP5 gene expression; test: GC regulated gene expression in tissues of the contact hypersensitivity model; type: in vivo, mouse; conditions: 3 mg/kg
Protocol: as §1

Q: For Cc1ccc(OCc2cccc(N)c2)c(F)c1[C@H]1O[C@@H]2C[C@H]3[C@@H]4CCC5=CC(=O)C=C[C@]5(C)[C@H]4[C@@H](O)C[C@]3(C)[C@]2(C(=O)CO)O1 (single isomer, unassigned) [GC1], which “% Inhibition of human IFNα secretion” value [1] is on record?
A: Its value is 97.18 ± 2.95%.

Q: What about the “% Inhibition of pDC cell differentiation” value ([1]; flow cytometry) of the same compound?
A: Its value is 95.50 ± 8.32%.

Q: And the inhibition at 0.2 µM ([2]; read-out: % Inhibition of human IL-6 secretion at 200 nM)?
A: The inhibition at 0.2 µM was 83.9 ± 2.81%.

Q: And the inhibition at 0.2 µM ([2]; read-out: % Inhibition of human TNFa secretion at 200 nM)?
A: Its inhibition at 0.2 µM is 85.1 ± 3.28%.

Q: What about the “Δ Ear thickness, Mean” value [3] of the same compound?
A: The value was 0.018*^ mm.

Q: And the “Fold increase in FKBP5 gene expression compared to Isotype, Gastrocnemius, Mean” value ([4]; non-targeted tissue (Gastrocnemius))?
A: Its value is 3.958.

Q: What about the “Fold increase in FKBP5 gene expression compared to Isotype, Ear, Mean” value ([4]; targeted tissue (Ear)) of the same compound?
A: Its value is 4.505.
